What was measured:
Assay type in all cases: cell-based
Panc-1 = experiment: MTT cell viability assay
Experimental: 1.1. ZPP and Y29794 induces cytotoxicity to cancer cells by MTT analysis of cell viability. Cells were placed in 96-well plates (3×10^3 cells/well) in octuplicate. The cells were then treated with vehicle or different doses of ZPP for 4 days. Cells were then loaded with 1.2 mM MTT (4,5-Dimethylthiazol-2-vn-2,5-diphenvltetrazolium bromide, a yellow tetrazole) in phenol red-free medium for 4 hours. The cells were then lysed in 10% SDS/0.01M HCL. MTT absorbance (570 nm spectrum) was measured by a microplate reader. The relative absorbance is normalized to the control (vehicle-treated) to indicate relative cell viability. ZPP was purchased from Biomol (Plymouth Meeting, Pa., USA). MTT was purchased from Sigma-Aldrich. Panc-1 and Capan-1 pancreatic cancer cell line, MCF7 and T47D breast cancer cell lines, A549 and HI 703 lung cancer Cell lines were purchased from American Type Culture Collection (ATCC, USA) preparation of pancreatic cancer cell line PK-9 have been disclosed, e.g., Kobari M et al, (1986) Tohoku J Exp Med. 150: 231-248; Etoh T et al, (2003) Clin Cancer Res 9; 1218; Arafat H. et al, (2011) Surgery 150 (2): 306-315. Cells were grown in Dulbecco's Modified. Eagle's (DMEM) medium (Invitrogen, Carlsbad, Calif.) containing 10% fetal bovine serum (FBS) (Hyclone, purchased from Thermo Fisher Scientific, Inc). […] […] Y29794 oxalate was purchased from Tocris Biosciences (Bristol, UK).

[1] = test system: mTOR (S2448) phosphorylation; experiment: Immunoblot analysis of mTOR phosphorylation; details: Panc-1; rapamycin, or Y29794 1 μM (FIG. 19D)
Experimental: Mouse anti-PRCP antibody was purchased from Abcam (Cambridge, Mass., USA). Goat anti-PREP antibody was purchased from R&D Systems (Minneapolis, Minn., USA). Mouse anti-R-actin antibody antibodies was from Santa Cruz Biotechnology (Santa Cruz, Calif., USA). Panc-1 pancreatic cancer cells and MCF7 breast cancer cells were cultured to 80% confluence, cells were rinsed three times with pre-cooled PBS, 500 μl of lysis buffer (150 mmol/L Nacl, 1% Triton-x-100, 50 mmol/l TrispH8.0, 1 mmol/L PMSF, 1 ug/L aprotinin, 1 ug/L leupeptin, 1 ug/L peptain) was added to the cells. Cells were scraped and transferred to a centrifuge tube with a pipette. The lysates were spun in a microcentrifuge at maximal speed for 10 minutes at 4° C. to get rid of the insoluble fraction. Protein concentration was determined by Bradford assay. For immunoprecipitation: 2-5 ug protein-specific antibodies were added to 250-500 ug of lysates in a tube and incubated on an ordital shaker 4° C. for 2-4 hours with moderate shaking, then 20 ul Protein G beads (Santa Cruz Biotechnology (Santa Cruz, Calif., USA.) were added and the mixture was incubated with moderate shaking for another hour. After washing the beads in lysis buffer five times, the immunoprecipitates were boiled in 2× Laemmli sample buffer (50 mmoL/L Tris-HCL (pH8.0), 100 mmoL/L DTT, 2% SDS, 0.1% bromophenol blue, 10% glycerol) for five minutes. The proteins were separated by conventional SDS-polyacrylamide gel electrophoresis (SDS-PAGE) electrophoresis and transferred to Amersham Hybond-P PVDF membrane (GE Company, Pittsburgh, Pa., USA). For immunoblot, the membrane was blocked in 2% BSA in TBST buffer (Tris 1.21 g+NaCl 5.84 g+800 ml H2O adjusted to pH 8.0 with HCl) for one hour and then incubated with primary antibodies in TBST at room temperature (22-25° C.) for 2 hours. After washing three times with TBST, the membrane was incubated with HRP-conjugated secondary antibodies for 0.5 hours at room temperature. […]

[2] = test system: AKT phosphorylation (S473); experiment: Immunoblot analysis of AKT phosphorylation in cancer cells; details: for AKT phosphorylation: two days; for AKT phosphorylation (S473): ZPP 400 μM or Y29794 1 μM; for rapamycin-induced increase in phosphorylation of AKT: rapamycin 10 nM plus ZPP 200 μM or Y29794 0.5 μM, 24 hours
Experimental: 2.2 Immunoblot analysis of gene silencing of PRCP or PREP in cancer cells. Mouse anti-PRCP antibody was purchased from Abcam (Cambridge, Mass., USA). Goat anti-PREP antibody was purchased from R&D Systems (Minneapolis, Minn., USA). Mouse anti-R-actin antibody antibodies was from Santa Cruz Biotechnology (Santa Cruz, Calif., USA). Panc-1 pancreatic cancer cells and MCF7 breast cancer cells were cultured to 80% confluence, cells were rinsed three times with pre-cooled PBS, 500 μl of lysis buffer (150 mmol/L Nacl, 1% Triton-x-100, 50 mmol/l TrispH8.0, 1 mmol/L PMSF, 1 ug/L aprotinin, 1 ug/L leupeptin, 1 ug/L peptain) was added to the cells. Cells were scraped and transferred to a centrifuge tube with a pipette. The lysates were spun in a microcentrifuge at maximal speed for 10 minutes at 4° C. to get rid of the insoluble fraction. Protein concentration was determined by Bradford assay. For immunoprecipitation: 2-5 ug protein-specific antibodies were added to 250-500 ug of lysates in a tube and incubated on an ordital shaker 4° C. for 2-4 hours with moderate shaking, then 20 ul Protein G beads (Santa Cruz Biotechnology (Santa Cruz, Calif., USA.) were added and the mixture was incubated with moderate shaking for another hour. After washing the beads in lysis buffer five times, the immunoprecipitates were boiled in 2× Laemmli sample buffer (50 mmoL/L Tris-HCL (pH8.0), 100 mmoL/L DTT, 2% SDS, 0.1% bromophenol blue, 10% glycerol) for five minutes. The proteins were separated by conventional SDS-polyacrylamide gel electrophoresis (SDS-PAGE) electrophoresis and transferred to Amersham Hybond-P PVDF membrane (GE Company, Pittsburgh, Pa., USA). For immunoblot, the membrane was blocked in 2% BSA in TBST buffer (Tris 1.21 g+NaCl 5.84 g+800 ml H2O adjusted to pH 8.0 with HCl) for one hour and then incubated with primary antibodies in TBST at room temperature (22-25° C.) for 2 hours. After washing three times with TBST, the membrane was incubated with HRP-conjugated secondary antibodies for 0.5 hours at room temperature. After washing the membrane five times with TBST (5 minutes/each), the membrane was incubated with ECL chromogenic reagent (GE Company, Pittsburgh, Pa., USA) for 1-5 minutes. The blots were exposed to films in darkroom for 1-5 minute. The films were developed in an automatic X-OMAT Developer (KODAK, Rochester, N.Y., USA). […] PREP gene silencing (PREP KD) or PRCP gene silencing (PRCP KD) or gene silencing both PRCP and PREP (DKD) in MCF7 cells reduces expression of PREP and/or PRCP proteins compared with control cells (control) (FIGS. 6B & 6C).
3.1 Reduction in AKT phosphorylation is examined by immunoblot using rabbit anti-phospho-AKT […] and rabbit anti-pan AKT antibodies purchased from Cell Signaling Technology (Danvers, Mass., USA) in the cells with gene silencing of PRCP and/or PREP or treated with ZPP or Y29794. Reduction in PRCP and/or PREP is shown by Western blot and quantitative PCR described in 2.2.

Compound: CC(C)c1ccc(C(=O)c2cccs2)c(SCCCCCCCCN(C)C)n1 [Y29794, [2-[8-(dimethylamino)octylsulfanyl]-6-propan-2-ylpyridin-3-yl]-thiophen-2-ylmethanone]
- MTT absorbance (relative cell viability) (Panc-1; Panc-1, different doses, 4 days): dose-dependent cytotoxicity
- cell viability (MTT), combination (Panc-1; Panc-1, various concentration of Y29794 with 0.5 nM rapamycin, three days (FIG. 16A legend)): synergistic reduction
- cell viability (MTT), combination (Panc-1; Panc-1, various concentration of rapamycin with 25 nM Y29794, three days (FIG. 16B legend)): synergistic reduction
- mTOR (S2448) phosphorylation [1]: without affecting
- AKT phosphorylation ([2]; MCF7, Y29794 0.5 μM, vs vehicle (ethanol)): significantly decreased
- AKT phosphorylation (S473) ([2]; MCF7, vs vehicle (FIG. 8B, 8E legend)): reduced
- rapamycin-induced increase in phosphorylation of AKT ([2]; MCF7): blocked
- AKT phosphorylation ([2]; PK-9, ZPP 200 μM or Y29794 0.5 μM, vs vehicle): significantly decreased
- AKT phosphorylation (S473) ([2]; PK-9, vs vehicle (FIG. 8A, 8F legend)): reduced
- AKT phosphorylation ([2]; Panc-1, ZPP 200 μM or Y29794 0.5 μM, vs vehicle): significantly decreased
- phosphorylated AKT (S473) ([2]; Panc-1, ZPP 400 μM alone (FIG. 10A legend) or Y29794 0.5 μM alone (FIG. 11A legend)): reduced
- AKT phosphorylation (S473) ([2]; Panc-1, vs vehicle (FIG. 8C, 8D legend)): reduced
- rapamycin-induced increase in phosphorylation of AKT ([2]; Panc-1): blocked

From patent US9750728B2, “Method and pharmaceutical composition for inhibiting PI3K/AKT/mTOR signaling pathway” (TARGETED THERAPEUTICS, LLC, priority 2012, dated 2017)
